According to patent publication US20240240224A1, “FLUORESCENT D-TYPE AMINO ACID METABOLISM MARKER-BASED METHOD FOR DETECTING ANTIBACTERIAL DRUG SENSITIVITY TEST” (priority 2020, published 2024):
Converted amounts (≈) assume the structure as drawn.

What was measured:
E. coli Ec11 [1] = experiment: BMD susceptibility test; assay type: cell-based, Escherichia coli; details: unit assumed
E. coli Ec11 [2] = experiment: FaAST (FDAA metabolic labeling); assay type: cell-based, Escherichia coli; details: unit assumed
Description: (§1) The specific experimental steps are as follows: • 1. Take the colony to be tested that has been cultured overnight on the plate and fully mix it in normal saline to make a uniform bacterial solution. Dilute it into CAMHB medium to make a bacterial solution with OD600=0.05. • 2. Add 45 μl antibiotic solutions to be tested of different concentrations to 96-well plates (see Table 3 for antibiotic concentration gradient settings). • 3. Add 50 μl of bacterial solution prepared in Step 1 to the 96-well plate and mix well. • 4.5 μl of 10 mM Cy5-DAA probe was added to each well (final concentration was 0.15 mM, and its structure was shown in FIG. 1). After mixing, the probe was incubated for 2 hours in the dark. • 5. After dilution with 200 μl PBS solution, the fluorescence intensity of each sample was detected by flow cytometry. The flow detection results are shown in the attached FIG. 4-5, showing the curve of antibiotic concentration gradient and fluorescence intensity, and the MIC (minimum inhibitory concentration) is obtained by referring to this curve.
(§2) Antibiotic resistant strains are shown in bold in the table below.

Ec ATCC 25922 [3] = experiment: FaAST (FDAA metabolic labeling); assay type: cell-based, Escherichia coli; details: unit assumed
Description: as §1, §2

Ec ATCC 25922 [4] = experiment: BMD susceptibility test; assay type: cell-based, Escherichia coli; details: unit assumed
K. pneumoniae Kp6 [5] = experiment: BMD susceptibility test; assay type: cell-based, Klebsiella pneumoniae; details: unit assumed
K. pneumoniae Kp6 [6] = experiment: FaAST (FDAA metabolic labeling); assay type: cell-based, Klebsiella pneumoniae; details: unit assumed
Description: as §1, with “cytometry.” for “cytometry. The flow detection results are shown in the attached FIG. 4-5, showing the curve of antibiotic concentration gradient and fluorescence intensity, and the MIC (minimum inhibitory concentration) is obtained by referring to this curve.”

Ec ATCC 25922 [7] = details: cited from earlier work
S. aureus ST398 [8] = experiment: FDAA metabolic labeling susceptibility test (Cy5-DAA probe, flow cytometry); assay type: cell-based; details: Staphylococcus aureus; S. aureus ST398; Cy5-DAA probe, 2 hours; read-out: MIC, FDAA
Description: (§3) Take the colony to be tested that has been cultured overnight on the plate and fully mix it in normal saline to make a uniform bacterial solution. Dilute it into Cation-Adjusted Mueller Hinton Broth (CAMHB) culture medium to make a bacterial solution with OD600=0.05. • 2. Add 45 μl antibiotic solutions of different concentrations to 96-well plates (see Table 1 for antibiotic concentration gradient settings). • 3. Add 50 μl of the bacterial solution prepared in step 1 to the 96-well plate and mix well. • 4. Add 5 μl of 10 mM Cy5-DAA probe (final concentration 0.15 mM, see FIG. 1 for its structure) into each well, mix well, and cultivate in dark for 2 hours. • 5. Add 200 μl After PBS solution is diluted, the fluorescence intensity of each sample is detected by flow cytometry. The flow detection results are shown in FIG. 4-5, showing the curve of the change of antibiotic concentration gradient and fluorescence intensity. The MIC (minimum inhibitory concentration) can be obtained by referring to this curve.

S. aureus ST59 [9] = experiment: as above; assay type: cell-based; details: Staphylococcus aureus; S. aureus ST59; Cy5-DAA probe, 2 hours; read-out: MIC, FDAA
Description: as §3

S. aureus ST59 [10] = experiment: Vitek 2 drug sensitivity test; assay type: cell-based, Staphylococcus aureus; as to Sensibility: key: S: Drug sensitive; R: Drug resistance
S. aureus ST398 [11] = experiment: Vitek 2 drug sensitivity test; assay type: cell-based, Staphylococcus aureus; as to Sensibility: key: S: Drug sensitive; R: Drug resistance
E. faecium Ef26 [12] = experiment: BMD susceptibility test; assay type: cell-based, Enterococcus faecium; details: unit assumed
E. faecium Ef26 [13] = experiment: FaAST (FDAA metabolic labeling method); assay type: cell-based, Enterococcus faecium; details: unit assumed
Description: as §3
(§4) Bacteria with antibiotic resistance are shown in bold in the following table.

E. faecalis ATCC29212 [14] = experiment: BMD susceptibility test; assay type: cell-based, Enterococcus faecalis; details: unit assumed
E. faecalis ATCC29212 [15] = experiment: FaAST (FDAA metabolic labeling method); assay type: cell-based, Enterococcus faecalis; details: unit assumed
Description: as §3, §4

E. faecalis ATCC29212 [16] = details: cited from earlier work
[17] = test system: alveolar lavage fluid sample 0130, A. baumannii; experiment: BMD susceptibility test of patient alveolar lavage fluid; assay type: cell-based, Acinetobacter baumannii; details: unit assumed
Source text: (§5) The results of antimicrobial susceptibility test of alveolar lavage fluid of seven patients using FDAA and BMD methods are shown in the following table. The drug-resistant bacteria are shown in bold.

[18] = test system: alveolar lavage fluid sample 0206, A. baumannii; experiment: as above; assay type: cell-based, Acinetobacter baumannii; details: unit assumed
Source text: as §5

[19] = test system: alveolar lavage fluid sample 0219, A. baumannii; experiment: as above; assay type: cell-based, Acinetobacter baumannii; details: unit assumed
Source text: as §5

[20] = test system: alveolar lavage fluid sample 0130, A. baumannii; experiment: FaAST (FDAA) susceptibility test of patient alveolar lavage fluid; assay type: cell-based, Acinetobacter baumannii; details: unit assumed
Description: (§6) With reference to the flow chart of the rapid detection method of antimicrobial susceptibility test based on FDAA metabolic markers shown in FIG. 3, FDAA is used for the detection of antimicrobial susceptibility test of alveolar lavage fluid. The specific experimental steps are as follows: • 1. Mix bronchoalveolar lavage fluid (BALF, 10 ml) of patients with hospital acquired pneumonia with cation regulated broth medium (CAMHB, 10 ml) of twice the concentration to prepare the bacterial fluid to be tested. • 2. Add 45 μl antibiotic solutions of different concentrations to the 96-well plate separately (see Table 1 for antibiotic concentration gradient settings). • 3. Add 50 μl of the bacterial solution prepared in step 1 to the 96-well plate and mix well. • 4. Add 5 μl of 10 mM Cy5-DAA probe (final concentration 0.15 mM, see FIG. 1 for its structure) into each well, mix well, and then cultivate in dark for 2 hours. • 5. Add 200 μl PBS solution for dilution, and then use flow cytometry to detect the fluorescence intensity of each sample.
as §5

[21] = test system: alveolar lavage fluid sample 0204, A. baumannii; experiment: as above; assay type: cell-based, Acinetobacter baumannii; details: unit assumed
Description: as §6, §5

[22] = test system: alveolar lavage fluid sample 0206, A. baumannii; experiment: as above; assay type: cell-based, Acinetobacter baumannii; details: unit assumed
Description: as §6, §5

[23] = test system: alveolar lavage fluid sample 0219, A. baumannii; experiment: as above; assay type: cell-based, Acinetobacter baumannii; details: unit assumed
Description: as §6, §5

[24] = test system: alveolar lavage fluid sample 0204, A. baumannii; experiment: BMD susceptibility test of patient alveolar lavage fluid; assay type: cell-based, Acinetobacter baumannii; details: unit assumed
[25] = test system: alveolar lavage fluid sample 0203, K. pneumoniae; experiment: as above; assay type: cell-based, Klebsiella pneumoniae; details: unit assumed
Source text: as §5

[26] = test system: alveolar lavage fluid sample 0226, K. pneumoniae; experiment: as above; assay type: cell-based, Klebsiella pneumoniae; details: unit assumed
Source text: as §5

[27] = test system: alveolar lavage fluid sample 0203, K. pneumoniae; experiment: FaAST (FDAA) susceptibility test of patient alveolar lavage fluid; assay type: cell-based, Klebsiella pneumoniae; details: unit assumed
Description: as §6, §5

[28] = test system: alveolar lavage fluid sample 0226, K. pneumoniae; experiment: as above; assay type: cell-based, Klebsiella pneumoniae; details: unit assumed
Description: as §6, §5

## CO/N=C(\C(=O)N[C@@H]1C(=O)N2C(C(=O)O)=C(COC(N)=O)CS[C@H]12)c1ccco1 [Cefuroxime]
E. coli Ec11 [1]
  BMD (MIC): 4 µg/mL
E. coli Ec11 [2]
  FaAST (MIC): 8 µg/mL
Ec ATCC 25922 [3]
  FaAST (MIC): 8 µg/mL
Ec ATCC 25922 [4]
  BMD (MIC): 4 µg/mL
K. pneumoniae Kp6 [5]
  BMD (MIC): 2 µg/mL
K. pneumoniae Kp6 [6]
  FaAST (MIC): 4 µg/mL
Ec ATCC 25922 [7]
  CLSI QC range: 2-8

## CC[C@H]1OC(=O)[C@H](C)[C@@H](O[C@H]2C[C@@](C)(OC)[C@@H](O)[C@H](C)O2)[C@H](C)[C@@H](O[C@@H]2O[C@H](C)C[C@H](N(C)C)[C@H]2O)[C@](C)(O)C[C@@H](C)C(=O)[C@H](C)[C@@H](O)[C@]1(C)O [Erythromycin, erythromycin]
S. aureus ST398 [8]
  MIC: 0.5 µg/mL (≈ 0.681 µM)
S. aureus ST59 [9]
  MIC: 8 µg/mL (≈ 10.9 µM)
S. aureus ST59 [10]
  Sensibility: R
S. aureus ST59 [10]; Staphylococcus aureus
  MIC: ≥ 8 µg/mL
S. aureus ST398 [11]
  Sensibility: S
S. aureus ST398 [11]; Staphylococcus aureus
  MIC: ≤ 0.25 µg/mL
E. faecium Ef26 [12]
  BMD (MIC): ≤ 0.25 µg/mL
E. faecium Ef26 [13]
  FaAST (MIC): ≤ 0.25 µg/mL
E. faecalis ATCC29212 [14]
  BMD (MIC): 2 µg/mL
E. faecalis ATCC29212 [15]
  FaAST (MIC): 2 µg/mL
E. faecalis ATCC29212 [16]
  CLSI QC range: 1-4

## C[C@@H](O)[C@H]1C(=O)N2C(C(=O)O)=C(S[C@@H]3CN[C@H](C(=O)N(C)C)C3)[C@H](C)[C@H]12 [Meropenem]
[17]
  BMD (MIC): 64 µg/mL
[18]
  BMD (MIC): 32 µg/mL
[19]
  BMD (MIC): 32 µg/mL
[20]
  FaAST (MIC): 32 µg/mL
[21]
  FaAST (MIC): 4 µg/mL
[22]
  FaAST (MIC): 32 µg/mL
[23]
  FaAST (MIC): 64 µg/mL
[24]
  BMD (MIC): 0.5 µg/mL
[25]
  BMD (MIC): 0.25 µg/mL
[26]
  BMD (MIC): 0.25 µg/mL
[27]
  FaAST (MIC): 0.25 µg/mL
[28]
  FaAST (MIC): 0.25 µg/mL
